Patent US11840686B2, “Modulation of prekallikrein (PKK) expression” (Ionis Pharmaceuticals, Inc., priority 2013, dated 2023)
Strand notation (5' to 3'): a small letter for the sugar, then the base; units joined by * are phosphorothioate-linked, units joined directly phosphodiester-linked; [ ] holds rarer units or linkages, { } end groups; capitals alone tell only the bases. e = 2'-O-(2-methoxyethyl) (MOE); [5mC] = 5-methylcytosine; d = 2'-deoxy (DNA)

Assays:
human PKK mRNA [1] = assay: Antisense inhibition of human PKK mRNA in HepaRG cells, 5,000 nM (Example 2); assay type: cell-based
Method in brief: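 Percent inhibition of PKK mRNA is reported relative to untreated cells, after adjustment for total RNA by RIBOGREEN. Gapmers of 16–20 nucleosides with 2′-MOE wings were delivered at 5,000 nM by electroporation into HepaRG cells and left for roughly 24 hours before RNA isolation.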

human PKK mRNA [2] = assay: Dose-dependent antisense inhibition of human PKK in HepaRG cells, 0.19-5.00 uM (Example 5); assay type: cell-based
Method in brief: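 HepaRG cells (20,000/well) were electroporated with antisense oligonucleotide at 0.19, 0.56, 1.67 and 5.00 μM and treated for about 16 hours. PKK mRNA was quantified by qRT-PCR with primer probe set RTS3454, normalised to RIBOGREEN total RNA, and IC50 was derived per oligonucleotide.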

[3] = Table 7, HepaRG cells, electroporation with 5,000 nM antisense oligonucleotide, approx. 24 hours, PKK mRNA by RT-PCR (RTS3454), relative to untreated control cells
[4] = HepaRG cells, electroporation, approximately 16 hours, Table 36
[5] = 4 point dose response, HepaRG cells, Table 36
[6] = Table 13, human PKK mRNA in HepaRG cells, 5-10-5 gapmers
[7] = HepaRG cells, electroporation, approximately 16 hours, Table 35
[8] = HepaRG cells, electroporation, approximately 16 hours, Table 41
[9] = 4 point dose response, HepaRG cells, Table 41
[10] = HepaRG cells, electroporation, approximately 16 hours, Table 39
[11] = 4 point dose response, HepaRG cells, Table 39
[12] = Table 34, HepaRG, electroporation, ~16 h

547373 (eG*e[5mC]*eA*eG*eA*dT*dG*dG*dT*d[5mC]*d[5mC]*dG*dA*d[5mC]*dA*e[5mC]*eA*e[5mC]*eA*eA; antisense) [compound 547373]
% inhibition (human PKK mRNA [1]; [3]): 90% | percent inhibition of PKK at 0.19 μM (human PKK mRNA [2]; [4]): 20% | percent inhibition of PKK at 0.56 μM (human PKK mRNA [2]; [4]): 7% | percent inhibition of PKK at 1.67 μM (human PKK mRNA [2]; [4]): 49% | percent inhibition of PKK at 5.00 μM (human PKK mRNA [2]; [4]): 86% | IC50 (human PKK mRNA [2]; [5]): 1.1 µM

546753 (e[5mC]*eT*eG*eG*e[5mC]*dT*d[5mC]*dA*d[5mC]*dT*dA*dT*dA*dG*dG*e[5mC]*e[5mC]*e[5mC]*e[5mC]*eA; antisense) [compound 546753]
% inhibition (human PKK mRNA [1]; [6]): 91% | percent inhibition of PKK at 0.19 μM (human PKK mRNA [2]; [4]): 28% | percent inhibition of PKK at 0.56 μM (human PKK mRNA [2]; [4]): 47% | percent inhibition of PKK at 1.67 μM (human PKK mRNA [2]; [4]): 83% | percent inhibition of PKK at 5.00 μM (human PKK mRNA [2]; [4]): 96% | IC50 (human PKK mRNA [2]; [5]): 0.5 µM | percent inhibition of PKK mRNA, 0.19 μM (human PKK mRNA [2]; HepaRG cells, 0.19 μM antisense oligonucleotide): 17% | percent inhibition of PKK mRNA, 0.56 μM (human PKK mRNA [2]; HepaRG cells, 0.56 μM antisense oligonucleotide): 31% | percent inhibition of PKK mRNA, 1.67 μM (human PKK mRNA [2]; HepaRG cells, 1.67 μM antisense oligonucleotide): 70% | percent inhibition of PKK mRNA, 5.00 μM (human PKK mRNA [2]; HepaRG cells, 5.00 μM antisense oligonucleotide): 91% | IC50 (human PKK mRNA [2]; HepaRG cells, 0.19-5.00 μM): 0.9 µM

546216 (antisense e[5mC]*eT*eG*eG*eA*dG*dT*dG*dA*dG*dA*dA*d[5mC]*d[5mC]*d[5mC]*eT*eG*eG*e[5mC]*eA) [compound 546216]
% inhibition (human PKK mRNA [1]; [3]): 93% | percent inhibition of PKK at 0.19 μM (human PKK mRNA [2]; [7]): 62% | percent inhibition of PKK at 0.56 μM (human PKK mRNA [2]; [7]): 69% | percent inhibition of PKK at 1.67 μM (human PKK mRNA [2]; [7]): 88% | percent inhibition of PKK at 5.00 μM (human PKK mRNA [2]; [7]): 88% | percent inhibition of PKK at 5.00 μM (human PKK mRNA [2]; [8]): 98% | percent inhibition of PKK at 0.19 0μM (human PKK mRNA [2]; [8]): 23% | percent inhibition of PKK at 0.56 0μM (human PKK mRNA [2]; [8]): 78% | percent inhibition of PKK at 1.67 1μM (human PKK mRNA [2]; [8]): 95% | IC50 (human PKK mRNA [2]; [9]): < 0.2 µM

547633 (antisense eA*eT*e[5mC]*eA*e[5mC]*dT*dG*dT*d[5mC]*d[5mC]*dT*dA*dT*dA*dT*e[5mC]*eA*e[5mC]*eT*e[5mC]) [compound 547633]
% inhibition (human PKK mRNA [1]; human PKK mRNA, HepaRG cells, 5-10-5 motif oligonucleotides targeting SEQ ID NO: 1 and 10): 87% | percent inhibition of PKK at 0.19 μM (human PKK mRNA [2]; [10]): 12% | percent inhibition of PKK at 0.56 μM (human PKK mRNA [2]; [10]): 46% | percent inhibition of PKK at 1.67 μM (human PKK mRNA [2]; [10]): 78% | IC50 (human PKK mRNA [2]; [11]): 0.7 µM

547366 (eG*eG*eA*eG*eT*dG*dA*dG*dA*dA*d[5mC]*d[5mC]*d[5mC]*dT*dG*eG*e[5mC]*eA*eA*e[5mC]; antisense) [compound 547366]
% inhibition (human PKK mRNA [1]; [3]): 86% | percent inhibition of PKK at 0.19 μM (human PKK mRNA [2]; [10]): 0% | percent inhibition of PKK at 0.56 μM (human PKK mRNA [2]; [10]): 45% | percent inhibition of PKK at 1.67 μM (human PKK mRNA [2]; [10]): 68% | percent inhibition of PKK at 5.00 μM (human PKK mRNA [2]; [10]): 91% | IC50 (human PKK mRNA [2]; [11]): 1.2 µM

547564 (e[5mC]*e[5mC]*e[5mC]*eT*e[5mC]*dT*dG*dT*d[5mC]*dT*dT*dA*dG*dA*dT*eG*eT*e[5mC]*e[5mC]*eA; antisense) [compound 547564]
% inhibition (human PKK mRNA [1]; [6]): 94% | percent inhibition of PKK at 5.00 μM (human PKK mRNA [2]; [8]): 97% | percent inhibition of PKK at 0.19 0μM (human PKK mRNA [2]; [8]): 46% | percent inhibition of PKK at 0.56 0μM (human PKK mRNA [2]; [8]): 66% | percent inhibition of PKK at 1.67 1μM (human PKK mRNA [2]; [8]): 90% | IC50 (human PKK mRNA [2]; [9]): 0.2 µM | percent inhibition of PKK at 0.19 μM (human PKK mRNA [2]; [12]): 51% | percent inhibition of PKK at 0.56 μM (human PKK mRNA [2]; [12]): 48% | percent inhibition of PKK at 1.67 μM (human PKK mRNA [2]; [12]): 82% | percent inhibition of PKK at 5.00 μM (human PKK mRNA [2]; [12]): 90% | IC50 (human PKK mRNA [2]; Table 34, PKK mRNA, HepaRG, electroporation, ~16 h): 0.2 µM

546854 (eT*eA*eA*e[5mC]*eA*dG*dT*dA*dT*d[5mC]*dA*d[5mC]*dT*dG*dT*e[5mC]*e[5mC]*eT*eA*eT; antisense) [compound 546854]
% inhibition (human PKK mRNA [1]; human PKK mRNA in HepaRG cells, 5-10-5 gapmers, Table 14): 90% | percent inhibition of PKK at 0.19 μM (human PKK mRNA [2]; [4]): 23% | percent inhibition of PKK at 0.56 μM (human PKK mRNA [2]; [4]): 39% | percent inhibition of PKK at 1.67 μM (human PKK mRNA [2]; [4]): 83% | percent inhibition of PKK at 5.00 μM (human PKK mRNA [2]; [4]): 94% | IC50 (human PKK mRNA [2]; [5]): 0.6 µM
